Test results from US11440923B2, “Substituted macrocyclic indole derivatives” (Bayer Aktiengesellschaft, priority 2017, dated 2022).
Where a name gives a salt, the structure may show the parent alone. Read-outs that look alike come from different tables or passages of the source.

How the values were obtained:
SUDHL5 cells = experiment: Induction of cytotoxicity in SUDHL5 cells (Assay 6); assay type: cell-based; conditions: 5 h, CellTiter-Glo, read-out: Cytotox SUDHL5 IC50 (median)
Method in brief: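 Cells plated overnight at 37 °C, then exposed to compound for 5 h in a humidified incubator at 37 °C. Viability read by CellTiter-Glo luminescence after 15 min shaking at room temperature; cell-free medium served as control.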

AMO-1 cells = experiment: Antiproliferation assay AMO-1 (Assay 7); assay type: cell-based
Method in brief: (§1)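 Anti-proliferative effect was measured by CellTiter-Glo ATP luminescence after 72 h compound exposure at 37° C, following overnight plating. IC50s were derived using a parallel time-zero plate and DMSO-treated controls as reference points.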

HMC-1-8 cells = experiment: Antiproliferation assay HMC-1-8 (Assay 7); assay type: cell-based
Method in brief: as §1

BCL-XL = BCL-XL (Homo sapiens (Human), UniProt Q07817); experiment: Protein-protein interaction assay BCL-XL/Bad BH3 peptide (BCL-XL assay, TR-FRET); assay type: binding; conditions: read-out: BCL-XL Assay IC50 (median)
Experimental: Assay 2 Protein-Protein Interaction Assay: BCL-XL/Bad BH3 Peptide (BCL-XL Assay)
The dose-dependent inhibition by the compounds described in this invention of the interaction between BCL-XL and the BH3 domain of Bad (both human) was determined using a steady state binding competition assay with time-resolved fluorescence energy transfer (TR-FRET) readout. For that purpose BCL-XL (amino acids 1-212, C-terminal fused to a hexahistidine (6×His) tag (SEQ ID 3) and a synthetic Bad BH3-derived peptide of sequence Biotin-PEG2-PEG2-[…]-Nle-[…]-amide (SEQ ID 4) served as protein receptor and tracer ligand respectively. The recombinant BCL-XL protein (expressed in E. coli) was purchased from BPS Bioscience (San Diego, Calif., USA). The Bad BH3-derived peptide can be obtained from e.g. Biosyntan (Berlin, Germany).
In the assay 11 different concentrations of each compound (0.1 nM, 0.33 nM, 1.1 nM, 3.8 nM, 13 nM, 44 nM, 0.15 μM, 0.51 μM, 1.7 μM, 5.9 μM and 20 μM) were typically measured as duplicates in the same microtiter plate. For that, 100-fold concentrated DMSO solutions were prepared by serial dilutions (1:3.4) of a 2 mM stock solution in a clear, 384-well microtiter plate (Greiner Bio-One, Frickenhausen, Germany). From there, 50 nl were transferred in a dark test plate (Greiner Bio-One, Frickenhausen, Germany). The assay was initiated by addition of 2 μL of a 2,5-fold concentrated His-BCL-XL solution (usually for a 1 nM end concentration in 5 μL reaction volume) in aqueous assay buffer [50 mM Tris/HCl pH 7, 100 mM sodium chloride (NaCl), 50 mM potassium fluoride (KF), 0.005% Tween-20, 2 mM DTT, 0.1% bovine gamma globulin (BGG)] to the compounds in the assay plate. This was followed by a 10-minute incubation step at 22° C. for pre-equilibration of the putative complex between His-BCL-XL and the compounds. After that, 3 μL of a 1.67-fold concentrated solution (in assay buffer) consisting of Bad BH3-derived peptide (1 nM end concentration) and TR-FRET detection reagents [1.67 nM anti-His-Eu cryptate and 1.67 nM streptavidin-XL665 (both from Cisbio Bioassays, Codolet, France)], were added.
The mixture was incubated in the dark for one hour at 22° C. and then overnight at 4° C. The formation of BCL-XL/Bad complexes was determined by measuring the resonance energy transfer of the anti-His- Eu-cryptate antibody to the streptavidin-XL665 present in the reaction. For that purpose, the fluorescence emission at 620 nm and 665 nm after excitation at 330-350 nm was measured in a TR-FRET measuring instrument, for instance a Rubystar or a Pherastar (both from BMG Lab Technologies, Offenburg, Germany) or a Viewlux (Perkin-Elmer). The ratio of the emission at 665 nm and at 622 nm was used as indicator of the amount of BCL-XL/Bad complexes present.
The resulting data (ratio) were normalized, taking 0% inhibition as the mean value of control measurements (usually 32 data points) where all reagents were included. In this case 50 nl DMSO were used instead of compounds. […] IC50 values were determined by regression analysis based on a 4 parameter equation (minimum, maximum, IC50, Hill; Y=Max+(Min−Max)/(1+(X/IC50)^Hill) using the Screener Software (Genedata).

[1] = Homo sapiens, AMO1, 72 h, 72 h, CellTiter-Glo; read-out: Antiproli AMO-1 IC50 median
[2] = 72 h, CellTiter-Glo, read-out: Antiproli HMC-1-8 IC50 median
[3] = read-out: Antiproli AMO-1 IC50 median; 72 h, CellTiter-Glo
[4] = read-out: Antiproli HMC-1-8 IC50 median; 72 h, CellTiter-Glo

BCL-XL, sequence (Q07817 1-212): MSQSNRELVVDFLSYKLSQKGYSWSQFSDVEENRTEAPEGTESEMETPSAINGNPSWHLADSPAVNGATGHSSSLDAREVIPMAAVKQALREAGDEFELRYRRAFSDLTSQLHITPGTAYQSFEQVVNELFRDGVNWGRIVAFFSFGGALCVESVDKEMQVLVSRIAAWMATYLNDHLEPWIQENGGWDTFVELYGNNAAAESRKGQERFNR

Row | Structure (SMILES) | IC50 (SUDHL5 cells; Homo sapiens, SU-DHL-5, 5 h) | IC50 (AMO-1 cells; [1]) | IC50 (HMC-1-8 cells; [2]) | IC50 (BCL-XL) | IC50 (AMO-1 cells; [3]) | IC50 (HMC-1-8 cells; [4]) | IC50 (SUDHL5 cells) | IC50 (AMO-1 cells; 72 h, CellTiter-Glo; read-out: Antiproli AMO-1 IC50 median)
1 | CCc1c2c(nn1C)C(CCN1CCOCC1)OCCCCn1c(C(=O)O)c(CCCOc3cccc4ccccc34)c3ccc(F)c-2c31 (racemic) [Example 10, (rac)-3-ethyl-4-fluoro-2-methyl-15-[2-(morpholin-4-yl)ethyl]-7-[3-(naphthalen-1-yloxy)propyl]-2,10,11,12,13,15-hexahydropyrazolo[4′,3′:9,10][1,6]oxazacycloundecino[8,7,6-hi]indole-8-carboxylic Acid] | 0.14 µM | 0.412 µM | 1.49 µM | > 20 µM |  |  |  | 
2 | Cc1c2c(nn1C)C(CCN1CCOCC1)OCCCCn1c(C(=O)O)c(CCCOc3cccc4ccccc34)c3ccc(Cl)c-2c31 (racemic) [Example 13, (rac)-4-chloro-2,3-dimethyl-15-[2-(morpholin-4-yl)ethyl]-7-{3-[(naphthalen-1-yl)oxy]propyl}-2,10,11,12,13,15-hexahydropyrazolo[4′,3′:9,10][1,6]oxazacycloundecino[8,7,6-hi]indole-8-carboxylic Acid] | 0.089 µM | 0.191 µM |  | > 20 µM |  |  |  | 
3 | Cc1c2c(nn1C)C(CCN1CCOCC1)OCCCCn1c(C(=O)O)c(CCCOc3cccc4cc(F)ccc34)c3ccc(Cl)c-2c31 (racemic) [Example 16, (rac)-4-chloro-7-{3-[(6-fluoronaphthalen-1-yl)oxy]propyl}-2,3-dimethyl-15-[2-(morpholin-4-yl)ethyl]-2,10,11,12,13,15-hexahydropyrazolo[4′,3′:9,10][1,6]oxazacycloundecino[8,7,6-hi]indole-8-carboxylic Acid] | 0.019 µM | 0.0483 µM | 0.322 µM | > 20 µM |  |  |  | 
4 | Cc1c2c(nn1C)C(CCN1CCOCC1)OCCCCn1c(C(=O)O)c(CCCOc3cccc4cc(F)ccc34)c3ccc(F)c-2c31 (racemic) [Example 19, (rac)-4-fluoro-7-{3-[(6-fluoronaphthalen-1-yl)oxy]propyl}-2,3-dimethyl-15-[2-(morpholin-4-yl)ethyl]-2,10,11,12,13,15-hexahydropyrazolo[4′,3′:9,10][1,6]oxazacycloundecino[8,7,6-hi]indole-8-carboxylic Acid] | 0.082 µM | 0.102 µM |  | > 20 µM |  |  |  | 
5 | CCc1c2c(nn1C)C(CCN1CCOCC1)OCCCCn1c(C(=O)O)c(CCCOc3cccc4cc(F)ccc34)c3ccc(Cl)c-2c31 (racemic) [Example 22, (rac)-4-chloro-3-ethyl-7-{3-[(6-fluoronaphthalen-1-yl)oxy]propyl}-2-methyl-15-[2-(morpholin-4-yl)ethyl]-2,10,11,12,13,15-hexahydropyrazolo[4′,3′:9,10][1,6]oxazacycloundecino[8,7,6-hi]indole-8-carboxylic Acid] | 0.011 µM | 0.0322 µM | 0.279 µM | > 20 µM |  |  |  | 
6 | CCC1OCCCCn2c(C(=O)O)c(CCCOc3cccc4ccccc34)c3ccc(Cl)c(c32)-c2c1nn(C)c2C (racemic) [Example 25, (rac)-4-chloro-15-ethyl-2,3-dimethyl-7-{3-[(naphthalen-1-yl)oxy]propyl}-2,10,11,12,13,15-hexahydropyrazolo[4′,3′:9,10][1,6]oxazacycloundecino[8,7,6-hi]indole-8-carboxylic Acid] | 2.8 µM | 6.55 µM | 12.9 µM | > 20 µM |  |  |  | 
7 | CCc1c2c(nn1C)C(CCN1CCN(C)CC1)OCCCCn1c(C(=O)O)c(CCCOc3cccc4cc(F)ccc34)c3ccc(Cl)c-2c31 (racemic) [Example 68, 4-chloro-3-ethyl-7-{3-[(6-fluoronaphthalen-1-yl)oxy]propyl}-2-methyl-(15-rac)-[2-(4-methylpiperazin-1-yl)ethyl]-2,10,11,12,13,15-hexahydropyrazolo[4′,3′:9,10][1,6]oxazacycloundecino[8,7,6-hi]indole-8-carboxylic Acid—N-ethylethanamine Salt (Mixture 1 of Stereoisomers)] |  |  |  | > 20 µM | 0.772 µM | 2.62 µM |  | 
8 | CCc1c2c(nn1C)C(CCN1CCN(C)CC1)OCCCCn1c(C(=O)O)c(CCCOc3cccc4cc(F)ccc34)c3ccc(Cl)c-2c31 (racemic) [Example 71, (rac)-4-chloro-3-ethyl-7-{3-[(6-fluoronaphthalen-1-yl)oxy]propyl}-2-methyl-(15-rac)-[2-(4-methylpiperazin-1-yl)ethyl]-2,10,11,12,13,15-hexahydropyrazolo[4′,3′:9,10][1,6]oxazacycloundecino[8,7,6-hi]indole-8-carboxylic Acid—N-ethylethanamine Salt (Mixture 2 Od Stereoisomers)] |  |  |  | > 20 µM | 0.209 µM | 1.37 µM |  | 
9 | CCc1c2c(nn1C)C(CCN1CCC(F)(F)C1)OCCCCn1c(C(=O)O)c(CCCOc3cccc4cc(F)ccc34)c3ccc(Cl)c-2c31 (single isomer, unassigned; enantiomer 1) [Example 56, 4-chloro-15-[2-(3,3-difluoropyrrolidin-1-yl)ethyl]-3-ethyl-7-{3-[(6-fluoronaphthalen-1-yl)oxy]propyl}-2-methyl-2,10,11,12,13,15-hexahydropyrazolo[4′,3′:9,10][1,6]oxazacycloundecino[8,7,6-hi]indole-8-carboxylic Acid—N-ethylethanamine Salt (Enantiomer 1)] |  |  |  | > 20 µM | 0.0226 µM |  | 0.021 µM | 
10 | CCc1c2c(nn1C)C(CCN1CCOCC1)OCCCCn1c(C(=O)O)c(CCCOc3cccc4ccccc34)c3ccc(F)c-2c31 (single isomer, unassigned; enantiomer 2) [Example 12, 3-ethyl-4-fluoro-2-methyl-15-[2-(morpholin-4-yl)ethyl]-7-{3-[(naphthalen-1-yl)oxy]propyl}-2,10,11,12,13,15-hexahydropyrazolo[4′,3′:9,10][1,6]oxazacycloundecino[8,7,6-hi]indole-8-carboxylic Acid—N-ethylethanamine Salt (Enantiomer 2)] |  |  |  | > 20 µM | 12.1 µM |  | 3.3 µM | 
11 | Cc1c2c(nn1C)C(CCN1CCOCC1)OCCCCn1c(C(=O)O)c(CCCOc3cccc4ccccc34)c3ccc(Cl)c-2c31 (single isomer, unassigned; enantiomer 2) [Example 15, 4-chloro-2,3-dimethyl-15-[2-(morpholin-4-yl)ethyl]-7-{3-[(naphthalen-1-yl)oxy]propyl}-2,10,11,12,13,15-hexahydropyrazolo[4′,3′:9,10][1,6]oxazacycloundecino[8,7,6-hi]indole-8-carboxylic Acid (Enantiomer 2)] |  |  |  | > 20 µM |  |  | 2.5 µM | 10.5 µM
12 | Cc1c2c(nn1C)C(CCN1CCOCC1)OCCCCn1c(C(=O)O)c(CCCOc3cccc4ccccc34)c3cccc-2c31 (single isomer, unassigned; stereoisomer 2) [Example 6, 2,3-dimethyl-15-[2-(morpholin-4-yl)ethyl]-7-[3-(naphthalen-1-yloxy)propyl]-2,10,11,12,13,15-hexahydropyrazolo[4′,3′:9,10][1,6]oxazacycloundecino[8,7,6-hi]indole-8-carboxylic Acid (Stereoisomer 2)] |  |  |  | > 20 µM |  |  | 22 µM | 
